In patent US20080280837A1, “Biologically Active Compounds with Anti-Angiogenic Properties” (priority 2004, published 2008):

System: not listed separately
Test: Solubility of salts of compound 1
Type: physicochemical
Settings: Water, overnight

Structure (SMILES) | Solubility in Water [µg/mL]
COC[C@H]1O[C@H](OCCc2ccccc2)[C@H](NC(=O)CCCN)[C@@H](OCc2ccc3ccccc3c2)[C@@H]1O [Methanesulphonate] | 5170

Biological target: T1, SSTR-1 (Homo sapiens, UniProt P30872)
T1 construct: expressed in transfected cells
Test: Radioligand binding screen against somatostatin subtype SSTR-1
Settings: Table 8; read-out: Ki SSTR1
Description: (§1) Receptor membrane preparations containing the desired cloned receptor (for example cloned human somatostatin receptor subtype 5, SSTR5) and radio-labeled ligand (for example 3-[^125I]iodotyrosyl^11 Somatostatin-14)) were diluted at the concentration required for testing and according to the specific parameters associated with the selected receptor-ligand combination, including receptor Bmax, ligand Kd and any other parameters necessary to optimize the experimental conditions. When tested for competition activity to the reference ligand, “compound 1” was mixed with membrane suspension and the radiolabeled reference ligand (with or without an excess of cold ligand to the receptor for determination of non-specific binding) and incubated at the temperature required by internal standard operating procedures. Following incubation, the binding reaction was stopped by the addition of ice-cold washing buffer and filtered on appropriate filters, which are then counted. Data analysis and curve-fitting was performed with XLfit (IDBS).
(§2) 10 mM solutions of test compounds in 100% DMSO were prepared. ˜160 μl was used for each dilution (20 μl/well in triplicate).
(§3) A 1.25 mM assay stock was prepared by making a 1:8 dilution of the 10 mM solution. (To 30 μL of the 10 mM solution was added 210 μL milli-Q H2O. A 1:5 dilution series in milli-Q H2O was then prepared.
(§4) In primary screening experiments compounds were tested in duplicate for a particular concentration.

T1 sequence (P30872 whole entry, species assumed): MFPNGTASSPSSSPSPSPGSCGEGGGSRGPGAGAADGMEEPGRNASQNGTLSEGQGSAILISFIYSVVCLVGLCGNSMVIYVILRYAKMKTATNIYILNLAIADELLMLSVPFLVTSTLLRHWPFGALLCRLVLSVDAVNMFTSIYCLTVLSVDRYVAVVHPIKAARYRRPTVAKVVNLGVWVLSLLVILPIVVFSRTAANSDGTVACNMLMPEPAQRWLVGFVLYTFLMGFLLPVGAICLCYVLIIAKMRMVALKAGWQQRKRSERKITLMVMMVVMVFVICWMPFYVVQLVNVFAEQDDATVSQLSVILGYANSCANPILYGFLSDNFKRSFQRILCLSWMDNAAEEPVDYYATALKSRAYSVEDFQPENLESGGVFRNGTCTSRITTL

Structure (SMILES) | Ki [nM]
COC[C@H]1OC(OCc2ccc(Cl)cc2)[C@H](NC(=O)CCCN=C(N)N)[C@H](OCc2ccc(Cl)cc2)[C@@H]1O (stereo partly shown) [Compound 2] | 2280
COC[C@H]1OC(OCc2ccc(Cl)cc2)[C@H](NC(=O)CCN)[C@H](OCc2ccc3ccccc3c2)[C@@H]1O (stereo partly shown) [Compound 3] | 3730
COC[C@H]1OC(OCc2ccc(Cl)cc2)[C@H](NC(=O)CCCN=C(N)N)[C@H](OCc2ccc3ccccc3c2)[C@@H]1O (stereo partly shown) [Compound 4] | 1590
COC[C@H]1OC(OCCc2ccccc2)[C@H](NC(=O)CCN)[C@H](OCc2ccc3ccccc3c2)[C@@H]1O (stereo partly shown) [Compound 5] | 2550
COC[C@H]1OC(OCc2ccc3ccccc3c2)[C@H](NC(=O)CCN)[C@H](OCc2ccccc2)[C@@H]1O (stereo partly shown) [Compound 6] | > 10000
COC[C@H]1OC(OCc2ccc3ccccc3c2)[C@H](NC(=O)CCN)[C@H](OCc2ccc(Cl)cc2)[C@@H]1O (stereo partly shown) [Compound 7] | 6090

Biological target: T2, SSTR-2 (Homo sapiens, UniProt P30874)
T2 construct: expressed in transfected cells
Test: Radioligand binding screen against somatostatin subtype SSTR-2
Settings: Table 8; read-out: Ki SSTR2
Description: as §1, §2, §3, §4

T2 sequence (P30874 whole entry): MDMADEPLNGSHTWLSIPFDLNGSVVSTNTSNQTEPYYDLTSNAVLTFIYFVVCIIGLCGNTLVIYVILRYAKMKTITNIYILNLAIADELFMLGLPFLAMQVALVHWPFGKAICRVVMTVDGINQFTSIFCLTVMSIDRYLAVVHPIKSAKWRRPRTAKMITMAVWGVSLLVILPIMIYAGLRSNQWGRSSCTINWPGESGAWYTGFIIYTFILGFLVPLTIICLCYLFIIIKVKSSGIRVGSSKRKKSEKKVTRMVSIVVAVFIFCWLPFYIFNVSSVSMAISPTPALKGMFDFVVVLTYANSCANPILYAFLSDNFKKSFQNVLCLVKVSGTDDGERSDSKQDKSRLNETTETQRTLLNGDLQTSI

Structure (SMILES) | Ki [nM]
COC[C@H]1OC(OCc2ccc(Cl)cc2)[C@H](NC(=O)CCCN=C(N)N)[C@H](OCc2ccc(Cl)cc2)[C@@H]1O (stereo partly shown) [Compound 2] | 728
COC[C@H]1OC(OCc2ccc(Cl)cc2)[C@H](NC(=O)CCN)[C@H](OCc2ccc3ccccc3c2)[C@@H]1O (stereo partly shown) [Compound 3] | 1230
COC[C@H]1OC(OCc2ccc(Cl)cc2)[C@H](NC(=O)CCCN=C(N)N)[C@H](OCc2ccc3ccccc3c2)[C@@H]1O (stereo partly shown) [Compound 4] | 842
COC[C@H]1OC(OCCc2ccccc2)[C@H](NC(=O)CCN)[C@H](OCc2ccc3ccccc3c2)[C@@H]1O (stereo partly shown) [Compound 5] | 1570
COC[C@H]1OC(OCc2ccc3ccccc3c2)[C@H](NC(=O)CCN)[C@H](OCc2ccc(Cl)cc2)[C@@H]1O (stereo partly shown) [Compound 7] | 498

Same assay, conditions: Table 8; shown where Ki could not be determined (NoModel); read-out: IC50 SSTR2 (in parentheses)

Structure (SMILES) | IC50 [nM]
COC[C@H]1OC(OCc2ccc3ccccc3c2)[C@H](NC(=O)CCN)[C@H](OCc2ccccc2)[C@@H]1O (stereo partly shown) [Compound 6] | 29200

Biological target: T3, SSTR-3 (Homo sapiens, UniProt P32745)
T3 construct: expressed in transfected cells
Test: Radioligand binding screen against somatostatin subtype SSTR-3
Settings: Table 8; read-out: Ki SSTR3
Description: as §1, §2, §3, §4

T3 sequence (P32745 whole entry): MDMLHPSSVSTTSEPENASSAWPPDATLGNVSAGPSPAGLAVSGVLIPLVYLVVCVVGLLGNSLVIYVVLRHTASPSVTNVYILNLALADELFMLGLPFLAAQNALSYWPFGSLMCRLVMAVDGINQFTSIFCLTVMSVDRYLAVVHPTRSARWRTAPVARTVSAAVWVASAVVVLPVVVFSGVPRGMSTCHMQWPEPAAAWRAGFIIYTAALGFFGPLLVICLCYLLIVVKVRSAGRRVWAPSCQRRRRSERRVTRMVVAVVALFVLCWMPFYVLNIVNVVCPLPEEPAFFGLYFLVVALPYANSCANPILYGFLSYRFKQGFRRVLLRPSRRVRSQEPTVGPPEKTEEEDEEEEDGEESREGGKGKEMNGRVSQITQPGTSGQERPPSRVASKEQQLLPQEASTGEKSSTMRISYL

Structure (SMILES) | Ki [nM]
COC[C@H]1OC(OCc2ccc(Cl)cc2)[C@H](NC(=O)CCCN=C(N)N)[C@H](OCc2ccc(Cl)cc2)[C@@H]1O (stereo partly shown) [Compound 2] | 203
COC[C@H]1OC(OCc2ccc(Cl)cc2)[C@H](NC(=O)CCCN=C(N)N)[C@H](OCc2ccc3ccccc3c2)[C@@H]1O (stereo partly shown) [Compound 4] | 188
COC[C@H]1OC(OCCc2ccccc2)[C@H](NC(=O)CCN)[C@H](OCc2ccc3ccccc3c2)[C@@H]1O (stereo partly shown) [Compound 5] | 285
COC[C@H]1OC(OCc2ccc3ccccc3c2)[C@H](NC(=O)CCN)[C@H](OCc2ccc(Cl)cc2)[C@@H]1O (stereo partly shown) [Compound 7] | 131

Same assay, conditions: Table 8; shown where Ki could not be determined (NoModel); read-out: IC50 SSTR3 (in parentheses)

Structure (SMILES) | IC50 [nM]
COC[C@H]1OC(OCc2ccc(Cl)cc2)[C@H](NC(=O)CCN)[C@H](OCc2ccc3ccccc3c2)[C@@H]1O (stereo partly shown) [Compound 3] | 127
COC[C@H]1OC(OCc2ccc3ccccc3c2)[C@H](NC(=O)CCN)[C@H](OCc2ccccc2)[C@@H]1O (stereo partly shown) [Compound 6] | 206

Biological target: T4, SSTR-4 (Homo sapiens, UniProt P31391)
T4 construct: expressed in transfected cells
Test: Radioligand binding screen against somatostatin subtype SSTR-4 (SST4 assay)
Settings: Table 8; read-out: Ki SSTR4
Description: as §1, §2, §3
Assays were performed in triplicate at each concentration within the 1:5 dilution series: 250 μM, 50 μM, 10 μM, […], 0.4 μM, 0.08 μM, 0.016 μM, 0.0032 μM, etc. (for SST4 assay) and 125 μM, 10 μM, 2 μM, 1 μM, 0.5 μM, etc (for SST5 assay).
as §4

T4 sequence (P31391 whole entry): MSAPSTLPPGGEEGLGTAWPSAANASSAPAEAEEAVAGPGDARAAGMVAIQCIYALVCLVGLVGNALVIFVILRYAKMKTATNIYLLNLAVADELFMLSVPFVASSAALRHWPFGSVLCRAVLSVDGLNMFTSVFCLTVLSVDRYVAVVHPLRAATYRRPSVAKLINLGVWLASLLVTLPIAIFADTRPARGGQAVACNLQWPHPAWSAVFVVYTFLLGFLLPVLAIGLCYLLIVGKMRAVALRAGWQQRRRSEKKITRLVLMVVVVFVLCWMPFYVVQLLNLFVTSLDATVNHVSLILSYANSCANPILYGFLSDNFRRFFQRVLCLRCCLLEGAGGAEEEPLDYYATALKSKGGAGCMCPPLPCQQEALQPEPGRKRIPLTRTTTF

Structure (SMILES) | Ki [nM]
COC[C@H]1OC(OCc2ccc(Cl)cc2)[C@H](NC(=O)CCCN=C(N)N)[C@H](OCc2ccc(Cl)cc2)[C@@H]1O (stereo partly shown) [Compound 2] | 3260
COC[C@H]1OC(OCc2ccc(Cl)cc2)[C@H](NC(=O)CCN)[C@H](OCc2ccc3ccccc3c2)[C@@H]1O (stereo partly shown) [Compound 3] | 4580
COC[C@H]1OC(OCc2ccc(Cl)cc2)[C@H](NC(=O)CCCN=C(N)N)[C@H](OCc2ccc3ccccc3c2)[C@@H]1O (stereo partly shown) [Compound 4] | 1420
COC[C@H]1OC(OCCc2ccccc2)[C@H](NC(=O)CCN)[C@H](OCc2ccc3ccccc3c2)[C@@H]1O (stereo partly shown) [Compound 5] | 8540
COC[C@H]1OC(OCc2ccc3ccccc3c2)[C@H](NC(=O)CCN)[C@H](OCc2ccccc2)[C@@H]1O (stereo partly shown) [Compound 6] | > 10000
COC[C@H]1OC(OCc2ccc3ccccc3c2)[C@H](NC(=O)CCN)[C@H](OCc2ccc(Cl)cc2)[C@@H]1O (stereo partly shown) [Compound 7] | 9130

Biological target: T5, Human SST5 somatostatin receptor (SSTR5) (Homo sapiens, UniProt P35346)
T5 construct: expressed in transfected cells; host or cells: HEK-293 EBNA
Test: Filter plate assay for SST5 receptor, displacement of [125I]SST-14
Type: binding
Settings: Table 8
Summary of the method: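 HEK-293 EBNA membranes expressing human SST5 (5.5 μg) incubated 60 min at 25 °C with 4 nM [125I]SST-14 and compound in pH 7.5 Tris/EGTA/MgCl2/sucrose buffer. Bound radioactivity collected on PEI-coated glass fiber filters and counted; triplicate 1:5 dilution series from 125 μM, non-specific binding with excess cold ligand.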

T5 sequence (P35346 whole entry): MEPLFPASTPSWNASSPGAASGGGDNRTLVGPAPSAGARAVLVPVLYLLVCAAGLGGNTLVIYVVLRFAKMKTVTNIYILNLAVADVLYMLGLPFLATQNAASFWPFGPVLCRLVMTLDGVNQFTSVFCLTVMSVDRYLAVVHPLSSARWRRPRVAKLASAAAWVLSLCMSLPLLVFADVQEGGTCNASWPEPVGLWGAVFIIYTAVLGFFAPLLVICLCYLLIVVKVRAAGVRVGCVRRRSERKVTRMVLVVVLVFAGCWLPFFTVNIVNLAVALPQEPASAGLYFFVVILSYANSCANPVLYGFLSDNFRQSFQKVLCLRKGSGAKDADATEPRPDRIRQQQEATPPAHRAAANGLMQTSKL

Structure (SMILES) | Ki [nM]
COC[C@H]1OC(OCc2ccc(Cl)cc2)[C@H](NC(=O)CCCN=C(N)N)[C@H](OCc2ccc(Cl)cc2)[C@@H]1O (stereo partly shown) [Compound 2] | 353
COC[C@H]1OC(OCc2ccc(Cl)cc2)[C@H](NC(=O)CCCN=C(N)N)[C@H](OCc2ccc3ccccc3c2)[C@@H]1O (stereo partly shown) [Compound 4] | 530
COC[C@H]1OC(OCCc2ccccc2)[C@H](NC(=O)CCN)[C@H](OCc2ccc3ccccc3c2)[C@@H]1O (stereo partly shown) [Compound 5] | 153
COC[C@H]1OC(OCc2ccc3ccccc3c2)[C@H](NC(=O)CCN)[C@H](OCc2ccccc2)[C@@H]1O (stereo partly shown) [Compound 6] | 151
COC[C@H]1OC(OCc2ccc3ccccc3c2)[C@H](NC(=O)CCN)[C@H](OCc2ccc(Cl)cc2)[C@@H]1O (stereo partly shown) [Compound 7] | 22

Same assay, conditions: Table 8; shown where Ki could not be determined (NoModel); read-out: IC50 SSTR5 (in parentheses)

Structure (SMILES) | IC50 [nM]
COC[C@H]1OC(OCc2ccc(Cl)cc2)[C@H](NC(=O)CCN)[C@H](OCc2ccc3ccccc3c2)[C@@H]1O (stereo partly shown) [Compound 3] | 147

System: Human Umbilical Vein Endothelial Cells (HUVEC)
Test: Endothelial cell proliferation assay (MTS)
Type: cell-based
Settings: 125 uM, 48 hrs
Description: Human Umbilical Vein Endothelial Cells (HUVEC from Clonetics) were plated in 96 well plates at 1000 cell per well in EGM-2 medium (Clonetics). Cells were grown overnight at 37° C. in 5% CO2. Fresh EGM-2 medium containing compound at the desired concentration was added to the wells and the cells allowed to grow for a further 48 hrs. A MTS (Promega) colorimetric assay was performed after 48 hrs to determine cell growth according to the manufacturers instructions. Results are presented in terms of percentage growth.

Structure (SMILES) | Percent cell growth at 125 µM [%]
COC[C@H]1OC(OCc2ccc(Cl)cc2)[C@H](NC(=O)CCCN=C(N)N)[C@H](OCc2ccc(Cl)cc2)[C@@H]1O (stereo partly shown) [Compound 2] | -83
COC[C@H]1OC(OCc2ccc(Cl)cc2)[C@H](NC(=O)CCN)[C@H](OCc2ccc3ccccc3c2)[C@@H]1O (stereo partly shown) [Compound 3] | -75
COC[C@H]1OC(OCc2ccc(Cl)cc2)[C@H](NC(=O)CCCN=C(N)N)[C@H](OCc2ccc3ccccc3c2)[C@@H]1O (stereo partly shown) [Compound 4] | -98
COC[C@H]1OC(OCCc2ccccc2)[C@H](NC(=O)CCN)[C@H](OCc2ccc3ccccc3c2)[C@@H]1O (stereo partly shown) [Compound 5] | -89
COC[C@H]1OC(OCc2ccc3ccccc3c2)[C@H](NC(=O)CCN)[C@H](OCc2ccccc2)[C@@H]1O (stereo partly shown) [Compound 6] | 24
COC[C@H]1OC(OCc2ccc3ccccc3c2)[C@H](NC(=O)CCN)[C@H](OCc2ccc(Cl)cc2)[C@@H]1O (stereo partly shown) [Compound 7] | -81

Same assay, conditions: 250 uM, 48 hrs

Structure (SMILES) | Percent cell growth at 250 µM [%]
COC[C@H]1OC(OCc2ccc(Cl)cc2)[C@H](NC(=O)CCCN=C(N)N)[C@H](OCc2ccc(Cl)cc2)[C@@H]1O (stereo partly shown) [Compound 2] | -91
COC[C@H]1OC(OCc2ccc(Cl)cc2)[C@H](NC(=O)CCN)[C@H](OCc2ccc3ccccc3c2)[C@@H]1O (stereo partly shown) [Compound 3] | -39
COC[C@H]1OC(OCc2ccc(Cl)cc2)[C@H](NC(=O)CCCN=C(N)N)[C@H](OCc2ccc3ccccc3c2)[C@@H]1O (stereo partly shown) [Compound 4] | -90
COC[C@H]1OC(OCCc2ccccc2)[C@H](NC(=O)CCN)[C@H](OCc2ccc3ccccc3c2)[C@@H]1O (stereo partly shown) [Compound 5] | -57
COC[C@H]1OC(OCc2ccc3ccccc3c2)[C@H](NC(=O)CCN)[C@H](OCc2ccccc2)[C@@H]1O (stereo partly shown) [Compound 6] | -78
COC[C@H]1OC(OCc2ccc3ccccc3c2)[C@H](NC(=O)CCN)[C@H](OCc2ccc(Cl)cc2)[C@@H]1O (stereo partly shown) [Compound 7] | -63
